“Also recorded” adds a separate entry of the source. Residues, ends and D or L forms follow the SMILES beside them. *: point of attachment. Decanoyl = CCCCCCCCCC(=O)*; CH2Cl = ClC*
B1: trypsin (protein, UniProt P00760 24-246, looked up)
Serine protease 1: IVGGYTCGANTVPYQVSLNSGYHFCGGSLINSQWVVSAAHCYKSGIQVRLGEDNINVVEGNEQFISASKSIVHPSYNSNTLNNDIMLIKLKSAASLNSRVASISLPTSCASAGTQCLISGWGNTKSSGTSYPDVLKCLKAPILSDSSCKSAYPGQITSNMFCAGYLEGGKDSCQGDSGGPVVCSGKLQGIVSWGSGCAQKNKPGVYTKVCNYVSWIKQTIASN
notes: exogenous protease added to fusion assays or virus titration

Columns and labels:
rFeMV^US5Venus (6) [1] = format: cell-based, Feline morbillivirus (FeMV)
FeMV^US5FPB protein = format: cell-based, Feline morbillivirus (FeMV)
rFeMV^US5Venus (6) [2] = format: cell-based, Feline morbillivirus (FeMV); remark: listed apart in the source
[3] = system: CDV^RI F and H glycoproteins; format: cell-based
[4] = system: MV^KS F and H glycoproteins; format: cell-based
[5] = system: FeMV F and H glycoproteins; format: cell-based, Feline morbillivirus (FeMV)
[6] = system: rFeMV^US5Venus (6) or rFeMV^US5Venus (3); format: cell-based, Feline morbillivirus (FeMV)
[7] = system: NiV^MA F and G glycoproteins; format: cell-based, Nipah virus (NiV)
FeMV^US5FPB = assay: Western blot of AU1-tagged F glycoprotein processing (F0 to F1) in transfected cells; format: cell-based, Feline morbillivirus (FeMV); details: E64d 20 μM vs DMSO; transfected CRFK cells, lysates at 2 d.p.t.
Experimental: (§1) CRFK cells were transfected with pCG-FeMV^US5F, pCG-FeMV^US5FAU1, or pCG-FeMV^US5FPB-AU1 in the absence or presence of the pan-cysteine protease inhibitor E64d. At 2 d.p.t. cell lysates were prepared. Medium was removed and the monolayers were rinsed twice with 1 ml cold D-PBS. Cold 1× RIPA buffer (Boston bioproducts; 200 μl) containing 1× HALT protease inhibitors (Thermo Fisher Scientific) was added to the monolayers and incubated on ice for 15 minutes. Monolayers were scraped into the buffer and transferred to cold 1.5 ml tubes. Lysates were incubated on ice for 30 minutes with intermittent vortexing before being centrifuged at 14,000 g for 15 minutes at 4° C. to pellet nuclei. The cleared supernatants were used to prepare samples for polyacrylamide gel electrophoresis (PAGE) by adding appropriate volumes of 4× NUPAGE™ LDS sample loading buffer and ×10 NUPAGE™ reducing agent (both Thermo Fisher Scientific Scientific). PAGE samples were heated to 70° C. for 10 minutes before separation of proteins on a 10% NUPAGE™ bis-TRIS polyacrylamide gel using the Xcell SureLock Mini-Cell system (Thermo Fisher Scientific Scientific) according to manufacturer's instructions. An aliquot of SeeBlue Plus2 Protein Standard was included on each gel to allow estimation of protein sizes. […]

FeMV^US5F = assay: as above; format: cell-based, Feline morbillivirus (FeMV); details: E64d 20 μM vs DMSO; transfected CRFK cells, lysates at 2 d.p.t.
Experimental: as §1

FeMV = details: trypsin added during virus titration in CRFK cells; cited from earlier work

| Molecule | spread of rFeMV^US5Venus (6) infection (rFeMV^US5Venus (6) [1]) | fusion activity with FeMV^US5FPB protein (FeMV^US5FPB protein) | rFeMV^US5-induced cell-to-cell fusion (luciferase activity) (rFeMV^US5Venus (6) [2]) | CDV^RI glycoprotein-induced fusion [3] | MV^KS glycoprotein-induced fusion [4] | FeMV glycoprotein-induced fusion [5] | cell-to-cell fusion and spread by rFeMV^US5Venus (6) and rFeMV^US5Venus (3) (rFeMV^US5Venus (6) [1]) | virus entry and initial replication in cells (rFeMV^US5Venus (6) [1]) | infectious virus titers [6] | NiV^MA glycoprotein-induced fusion [7] | FeMV^US5FPB (polybasic cleavage signal) F0 processing (FeMV^US5FPB) | FeMV^US5F processing (F0 to F1 subunit) (FeMV^US5F) | effect of trypsin on resultant virus titers (FeMV) | effect of exogenous trypsin on FeMV glycoprotein-induced cell-to-cell fusion [5] |
| --- | --- | --- | --- | --- | --- | --- | --- | --- | --- | --- | --- | --- | --- | --- |
| CCCCCCCCCC(=O)N[C@@H](CCCN=C(N)N)C(=O)N[C@H](C(=O)N[C@@H](CCCCN)C(=O)N[C@@H](CCCN=C(N)N)C(=O)CCl)C(C)C [furin inhibitor I] (Decanoyl-RVKR-CH2Cl) | had spread significantly | significantly reduced fusion | no difference in luciferase activity | reduced | reduced | unaffected |  |  |  |  |  |  |  |  |
| CCCNC(=O)[C@H]1O[C@@H]1C(=O)N[C@H](C(=O)N1CCC[C@H]1C(=O)OC)[C@@H](C)CC [CA-074Me] | limited to single cells with no spread from the initially infected cell |  | reduced; also recorded: inhibited |  |  |  | prevented cell-to-cell fusion and spread | can enter and initially replicate in cells equivalently to the no inhibitor control | reduced the infectious virus titers by two logs |  |  |  |  |  |
| CCOC(=O)[C@H]1O[C@@H]1C(=O)N[C@@H](CC(C)C)C(=O)NCCC(C)C [E64d] | limited to single cells with no spread from the initially infected cell | no longer affected the fusion activity | reduced |  |  | significantly reduced; also recorded: inhibited | prevented cell-to-cell fusion and spread | can enter and initially replicate in cells equivalently to the no inhibitor control | reduced the infectious virus titers by two logs | significantly reduced | no longer prevented F0 glycoprotein processing | prevented FeMV^US5F processing |  |  |
| B1 |  |  |  |  |  |  |  |  |  |  |  |  | did not augment the resultant virus titers | did not enhance fusion |

— patent publication US20250304921A1 (University of Pittsburgh-Of The Commonwealth System of …, priority 2022, published 2025)
